In patent US20070161592A1, “Method of treating fear” (priority 2005, published 2007):

Tests used:
NR2B = assay: Western blot of NR2B in ACC after siRNA electroporation; format: in vivo, mouse; settings: four days after electroporation
Experimental: (§1) Equal amounts of protein from the ACC and hippocampus were separated and electrotransferred onto PDVF membranes (Invitrogen), which were probed with anti-NR2A, anti-NR2B (Chemicon), and anti-PSD-95 (ABR) and with β-actin (Sigma) as a loading control. The membranes were incubated with horseradish peroxidase-conjugated secondary antibodies (anti-mouse IgG for PSD-95 and anti-rabbit IgG for the other primary antibodies), and bands were visualized using an ECL system (Perkin Elmer). Synaptosomal membrane fractions (LP1) were prepared as previously described (Dunah and Standaert, 2001) and solubilized using 1% SDS in TEVP buffer: 10 mM Tris-HCl, pH 7.4, 1 mM EDTA, 1 mM EGTA, 1× protease inhibitor cocktail (Sigma), and 1× phosphatase inhibitor cocktail 1 and 2 (Sigma). […] Results are expressed as means±SEM. […]
(§2) To inhibit NR2B expression specifically in the prefrontal cortex, including the ACC, siRNA was bilaterally delivered against NR2B with a reporter plasmid encoding EGFP by microelectroporation (Wei et al., 2003) (FIG. 8A). […] The expression levels of other NMDAR subunits (NR2A and NR1) and AMPA receptor subunit GluR1 were measured, and actin was used as a control in the ACCs of NR2B siRNA and control siRNA electroporated mice.

[1] = system: NR2A, NR1, GluR1, and actin; assay: Western blot of other membrane proteins in ACC after siRNA electroporation; format: in vivo, mouse; settings: four days after electroporation, vs control siRNA
Experimental: as §1, §2

NR2B-mediated NMDA EPSCs = NR2B-mediated NMDA EPSCs in neurons from siRNA electroporated ACC slices; format: cell-based, mouse; settings: Ro25-6981-sensitive component, control slices 12.6±2.6%
Experimental: Experiments were performed in a recording chamber on the stage of an Axioskop 2FS microscope with infrared DIC optics for visualizing whole-cell patch clamp recordings. EPSCs were recorded from layer II-III neurons using an Axon 200B amplifier (Axon Instruments, CA) and stimulations were delivered using a bipolar tungsten stimulating electrode placed in layer V of the ACC. In hippocampal slices, EPSCs were evoked by stimulating the Schaffer collateral-commissural pathway. EPSCs were induced by repetitive stimulations at 0.02 Hz and neurons were voltage clamped at −70 mV. The recording pipettes (3-5 MΩ) were filled with solution containing (mM) 145 K-gluconate, 5 NaCl, 1 MgCl2, 0.2 EGTA, 10 HEPES, 2 Mg-ATP, and 0.1 Na3-GTP (adjusted to pH 7.2 with KOH). After obtaining stable EPSCs for 10 min, three kinds of LTP induction paradigms were used within 12 min after establishing the whole-cell configuration to prevent wash out effect on LTP induction (Tsvetkov et al., 2002). The first protocol involved paired presynaptic 80 pulses at 2 Hz with postsynaptic depolarization at +30 mV (referred to as pairing training). […] The access resistance was 15-30 MΩ and was monitored throughout the experiment. […] Results are expressed as means±SEM. […]
NMDAR-mediated EPSCs were also recorded in neurons from electroporated ACC slices.

[2] = system: NR2B siRNA electroporated ACC neurons; assay: LTP in siRNA electroporated ACC neurons; format: cell-based, mouse
Experimental: Experiments were performed in a recording chamber on the stage of an Axioskop 2FS microscope with infrared DIC optics for visualizing whole-cell patch clamp recordings. EPSCs were recorded from layer II-III neurons using an Axon 200B amplifier (Axon Instruments, CA) and stimulations were delivered using a bipolar tungsten stimulating electrode placed in layer V of the ACC. In hippocampal slices, EPSCs were evoked by stimulating the Schaffer collateral-commissural pathway. EPSCs were induced by repetitive stimulations at 0.02 Hz and neurons were voltage clamped at −70 mV. The recording pipettes (3-5 MΩ) were filled with solution containing (mM) 145 K-gluconate, 5 NaCl, 1 MgCl2, 0.2 EGTA, 10 HEPES, 2 Mg-ATP, and 0.1 Na3-GTP (adjusted to pH 7.2 with KOH). After obtaining stable EPSCs for 10 min, three kinds of LTP induction paradigms were used within 12 min after establishing the whole-cell configuration to prevent wash out effect on LTP induction (Tsvetkov et al., 2002). The first protocol involved paired presynaptic 80 pulses at 2 Hz with postsynaptic depolarization at +30 mV (referred to as pairing training). The second involved paired 3 presynaptic stimuli that caused 3 EPSPs (10 ms ahead) with 3 postsynaptic APs at 30 Hz, paired 15 times every 5 s (named as EPSPs-APs protocol). The third involved theta-burst stimulation (5 trains of burst with 4 pulses at 100 Hz, at 200 ms interval; repeated 4 times at intervals of 10 s; named as TBS). The NMDAR-mediated component of EPSCs was pharmacologically isolated in Mg^2+-free ACSF containing: CNQX (20 μM), glycine (1 μM) and picrotoxin (100 μM). The patch electrodes contained (in mM) 102 cesium gluconate, 5 TEA-chloride, 3.7 NaCl, 11 BAPTA, 0.2 EGTA, 20 HEPES, 2 MgATP, 0.3 NaGTP, and 5 QX-314 chloride (adjusted to pH 7.2 with CsOH). Neurons were voltage clamped at −60 mV and NMDARs-mediated EPSCs were evoked at 0.05 Hz. Picrotoxin (100 μM) was always present to block GABAA receptor-mediated inhibitory synaptic currents. The access resistance was 15-30 MΩ and was monitored throughout the experiment. […] Results are expressed as means±SEM. […]

NR1/NR2B = settings: cited from earlier work

Row | Compound | NR2B expression compared to control siRNA electroporated control (NR2B) [%] | expression levels of NR2A, NR1, GluR1, and actin [1] | NR2B-mediated NMDA EPSCs, % of total NMDAR-mediated current (NR2B-mediated NMDA EPSCs) [%] | LTP vs control siRNA electroporated neurons ([2]; FIG. 7D) | potentiation (LTP) vs control siRNA electroporated neurons ([2]; TBS) | potentiation (LTP) vs control siRNA electroporated neurons ([2]; pairing training protocol) | IC50 (NR1/NR2B) [nM]
1 | NR2B siRNA: siRNA corresponding to NR2B, sense 5′-GGAUGAGUCCUCCAUGUUCtt-3′, antisense 5′-GAACAUGGAGGACUCAUCCtt-3′, Silencer Pre-designed siRNA ID #61879, Ambion (sense GGAUGAGUCCUCCAUGUUCTT; antisense GAACAUGGAGGACUCAUCCTT; chemistry not given here) | 64.8±4.6 | not significantly changed | 7.3±0.7 | Smaller LTP | significantly reduced | significantly reduced | –
2 | C[C@@H](CN1CCC(Cc2ccccc2)CC1)[C@@H](O)c1ccc(O)cc1 [Ro25-6981] | – | – | – | – | – | – | 9
